PMC11025159 (Journal of Translational Medicine, 2024)
Like-named read-outs stand apart in the source and are kept apart here.

Key:
JAK1 = molecular target: T1, JAK1 (Homo sapiens, UniProt P23458); test: Cell-free kinase assay JAK1; format: biochemical
T1 construct: purchased Promega Corporation VA7207
Experimental: (§1) The cell-free kinase assays of small molecules were determined by following the manufacturer-recommended protocols. Different concentrations in triplicate were used to determine the IC50 value of the hit molecules (active molecules). For data analysis, GraphPad Prism V9.5 Software and a sigmoidal dose–response (variable slope) equation were used. Each value represents an average of three replicates per concentration.

JAK2 = molecular target: T2, JAK2 (Homo sapiens, UniProt O60674); test: Cell-free kinase assay JAK2; format: biochemical; conditions: for IC50: read-out: IC50 JAK 2
T2 construct: purchased BPS Bioscience 79,520
Experimental: as §1

EGFR = molecular target: T3, EGFR (Homo sapiens, UniProt P00533); test: Cell-free kinase assay EGFR; format: biochemical
T3 construct: purchased Promega Corporation V3831
Experimental: as §1

GSK-3-β = molecular target: T4, GSK-3-β (Homo sapiens, UniProt P49841); test: Cell-free kinase assay GSK-3-β; format: biochemical
T4 construct: purchased Promega Corporation V1991
Experimental: as §1

PI-3-K α = molecular target: T5, PI-3-K α (Homo sapiens, UniProt P42336); test: Cell-free kinase assay PI-3-K α; format: biochemical; conditions: Km ATP
T5 construct: purchased Promega Corporation V1690
Experimental: as §1

PI-3-K β = molecular target: T6, PI-3-K β (Homo sapiens, UniProt P42338); test: Cell-free kinase assay PI-3-K β; format: biochemical; conditions: Km ATP
T6 construct: purchased Promega Corporation V1690
Experimental: as §1

[1] = tested on: phosphorylation of JAK1, JAK3 and STAT3; test: Western blotting of JAK/STAT phosphorylation in A549 cells; format: cell-based, human
Experimental: For western blotting, A549 cells were seeded at a density of 0.2 × 10^6 cells/well in 6-well plates. […] Whole-cell lysates were prepared in 1× RIPA buffer (Sigma) with added sodium orthovanadate (1 mM), protease cocktail (Roche), NaF (1 mM), PMSF (1 mM) and EDTA (0.5 M). Protein estimation was done using Bradford reagent (Bio-Rad). […] Whole-cell lysates corresponding to 70-100 µg of protein were loaded. The samples were analysed by SDS-PAGE with a 10% separating gel. […] The membrane was probed with specific antibodies for pJAK-1 (1:1000), p-STAT-3 (CST) (1:1000), total JAK-1 (1:1000), pJAK-3 Z(1:1000), T-JAK-3 (1:1000), total STAT-3(1:1000), GAPDH (1:500), and visualized using ECL (Millipore). GAPDH was used as a loading control. […] Following this starvation period, the A549 cells were pre-treated with varying concentrations of MJ04 for a duration of 4 h. Following the pre-treatment, the cells were stimulated with 10 ng/mL of IL-6 for 30 min [20–22].

DHT-induced AGA mice = test: Hair regrowth in DHT-induced AGA mice model (topical, 28 days); format: in vivo, C57BL/6J mice; conditions: for H&E skin histopathology finding: Days 7, 14, 21, 28; for hair follicle phase (histopathology): skin samples days 7, 14, 21, 28; for entry into the anagen phase: topical once a day in presence of testosterone
Experimental: C57BL/6 J mice (male) were obtained from CSIR-IIIM Animal House at 7 weeks of age. We used a DHT-induced AGA mice model for this study. […] At the end of the experiment, skin samples were collected and preserved in 10% neutral buffered formalin for tissue sectioning and staining using haematoxylin and eosin (H&E). The histopathological examinations were performed under the 10× and 40× objectives of light microscope (Magnus, Mx21i).
Dorsal skin samples from C57BL/6J mice were shaved and collected for histological and molecular analyses on Days 7, 14, 21, and 28. The full-thickness skin tissue was fixed in a 10% neutral buffered formalin solution (Sigma) overnight and subsequently dehydrated for embedding in paraffin. Haematoxylin and eosin (H&E) staining was performed on the skin tissue, and digital photomicrographs were taken from the representative areas using light microscope (Magnus, Mx21i).
The quantification of anagen initiation was assessed by observing changes in the dorsal skin colour of C57BL/6 mice, a phenomenon closely linked to the onset of the anagen phase. Anagen quantification was done by employing threshold analysis on dorsal skin colouration using ImageJ. The darkening of the skin, attributed to melanogenesis, strongly correlates with the progression of anagen. This analysis is visually depicted as a heatmap using GraphPad Prism 9.5 Software.

[2] = tested on: athymic nude mice (NU/J Foxn1nu); test: Hair growth in athymic nude mice (topical, 28 days); format: in vivo; conditions: for H&E skin histopathology finding / hair follicle grade: day 28; for early onset of hair: topical
Experimental: The groups are as follows: Group 1-Control (untreated), Group 2-Vehicle control, Group 3-tofacitinib citrate (0.8 mg/Kg), Group 4-tofacitinib citrate (0.08 mg/Kg), Group 5-MJ04 (0.08 mg/Kg), Group 6-MJ04 (0.04 mg/Kg), Group 7-MJ04 (0.016 mg/Kg), Group 8-baricitinib (0.1 mg/Kg), Group 9-baricitinib (0.04 mg/Kg), and Group 10-baricitinib (0.02 mg/Kg). At the end of the experiment, skin samples were collected and preserved in 10% neutral buffered formalin for tissue sectioning and staining using haematoxylin and eosin (H&E). The histopathological examinations were performed under the 10× and 40× objectives of light microscope (Magnus, Mx21i), and hair follicles were graded on a scale of 0 to 4 (++++).
The skin samples collected from athymic nude mice (NU/J Foxn1^nu) were preserved in 10% neutral buffered formalin and processed for tissue sectioning. The skin sections (10 µm) of nude mice were stained using haematoxylin and eosin (H&E) and viewed under 10× and 40× objectives of the light microscope (Magnus, Mx21i). The histopathological examination of the samples was performed, and the hair follicles in the skin sections were graded on a scale of 0 to 4 (++++).

[3] = Pharmacokinetic study, dermal application; format: in vivo, C57BL/6 mice; conditions: male, C57BL/6, mouse, topical or ocular; topical dose 30 mg/kg, plasma
Experimental: The male C57BL/6 mice were used to study the pharmacokinetics of MJ04. MJ04 was dissolved in vehicle suspensions for dermal application (30 mg/kg). Blood samples were collected at different time points: 0 min, 30 min, 1 h, 2 h, 4 h, 8 h, 12 h, and 24 h after dermal application. Plasma samples were separated by centrifugation of whole blood and stored at less than − 70 °C until bioanalysis. The concentration of MJ04 in plasma was detected using LC–MS/MS (Agilent Technologies, 1260 Infinity system). The pharmacokinetic parameters were processed by DAS (version 3.2.8) software.

[4] = A549 cells, increasing concentrations

T2 sequence (O60674 whole entry): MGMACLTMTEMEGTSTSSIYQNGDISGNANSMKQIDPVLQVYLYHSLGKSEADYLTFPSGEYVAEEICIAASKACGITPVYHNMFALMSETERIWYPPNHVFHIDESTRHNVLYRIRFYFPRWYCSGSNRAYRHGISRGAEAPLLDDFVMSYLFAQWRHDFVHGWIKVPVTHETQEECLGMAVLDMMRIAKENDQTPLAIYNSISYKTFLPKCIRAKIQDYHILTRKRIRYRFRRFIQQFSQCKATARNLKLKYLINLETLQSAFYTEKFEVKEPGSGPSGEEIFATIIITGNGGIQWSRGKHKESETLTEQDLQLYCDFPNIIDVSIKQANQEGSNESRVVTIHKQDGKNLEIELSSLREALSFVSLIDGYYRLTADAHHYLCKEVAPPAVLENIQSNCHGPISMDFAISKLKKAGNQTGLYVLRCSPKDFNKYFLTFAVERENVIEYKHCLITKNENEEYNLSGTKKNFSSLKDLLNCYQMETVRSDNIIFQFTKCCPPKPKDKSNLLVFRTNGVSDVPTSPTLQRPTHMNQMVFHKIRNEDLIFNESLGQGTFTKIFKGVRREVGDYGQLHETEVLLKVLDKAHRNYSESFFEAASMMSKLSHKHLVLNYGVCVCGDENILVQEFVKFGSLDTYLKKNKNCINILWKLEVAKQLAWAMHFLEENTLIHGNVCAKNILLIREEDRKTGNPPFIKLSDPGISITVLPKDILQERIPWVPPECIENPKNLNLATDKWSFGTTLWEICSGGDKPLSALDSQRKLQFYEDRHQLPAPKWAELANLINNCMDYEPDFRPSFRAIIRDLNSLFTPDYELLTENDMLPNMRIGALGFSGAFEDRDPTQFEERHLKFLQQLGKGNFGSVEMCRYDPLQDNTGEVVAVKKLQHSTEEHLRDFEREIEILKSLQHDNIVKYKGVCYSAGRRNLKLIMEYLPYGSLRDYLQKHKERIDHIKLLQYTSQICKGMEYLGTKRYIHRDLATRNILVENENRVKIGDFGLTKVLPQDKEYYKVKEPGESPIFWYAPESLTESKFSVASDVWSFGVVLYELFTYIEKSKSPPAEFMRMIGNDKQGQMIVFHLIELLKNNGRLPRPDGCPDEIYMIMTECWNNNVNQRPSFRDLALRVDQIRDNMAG
T1 sequence (P23458 whole entry): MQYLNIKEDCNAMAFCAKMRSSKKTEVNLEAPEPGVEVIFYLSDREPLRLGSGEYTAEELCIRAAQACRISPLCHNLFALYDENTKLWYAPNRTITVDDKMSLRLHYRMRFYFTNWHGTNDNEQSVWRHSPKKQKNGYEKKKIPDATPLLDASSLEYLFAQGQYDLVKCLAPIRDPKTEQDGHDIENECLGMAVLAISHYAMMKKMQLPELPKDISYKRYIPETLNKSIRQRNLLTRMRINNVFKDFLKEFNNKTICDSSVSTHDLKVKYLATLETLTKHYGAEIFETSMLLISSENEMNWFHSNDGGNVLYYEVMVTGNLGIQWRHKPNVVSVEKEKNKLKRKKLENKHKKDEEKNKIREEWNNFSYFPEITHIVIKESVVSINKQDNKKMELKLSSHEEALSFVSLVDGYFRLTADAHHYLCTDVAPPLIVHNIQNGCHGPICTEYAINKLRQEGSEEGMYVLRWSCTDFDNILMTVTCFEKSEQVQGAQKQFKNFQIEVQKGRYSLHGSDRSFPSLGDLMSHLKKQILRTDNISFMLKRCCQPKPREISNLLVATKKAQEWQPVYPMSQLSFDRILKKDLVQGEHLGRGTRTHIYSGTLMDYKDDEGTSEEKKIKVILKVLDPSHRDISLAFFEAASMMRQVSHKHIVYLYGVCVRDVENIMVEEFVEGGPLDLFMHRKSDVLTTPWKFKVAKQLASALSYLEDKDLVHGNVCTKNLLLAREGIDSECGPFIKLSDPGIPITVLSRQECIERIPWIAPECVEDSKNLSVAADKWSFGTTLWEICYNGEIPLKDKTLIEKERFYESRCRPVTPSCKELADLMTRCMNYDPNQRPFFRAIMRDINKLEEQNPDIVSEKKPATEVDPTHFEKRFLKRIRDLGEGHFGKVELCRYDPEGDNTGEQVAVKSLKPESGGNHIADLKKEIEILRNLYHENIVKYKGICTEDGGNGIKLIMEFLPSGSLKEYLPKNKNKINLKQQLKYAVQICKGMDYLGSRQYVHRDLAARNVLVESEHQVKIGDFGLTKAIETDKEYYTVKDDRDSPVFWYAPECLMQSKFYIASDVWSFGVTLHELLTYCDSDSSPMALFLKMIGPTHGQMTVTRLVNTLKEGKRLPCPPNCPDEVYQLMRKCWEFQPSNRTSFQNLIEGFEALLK
T3 sequence (P00533 25-1210): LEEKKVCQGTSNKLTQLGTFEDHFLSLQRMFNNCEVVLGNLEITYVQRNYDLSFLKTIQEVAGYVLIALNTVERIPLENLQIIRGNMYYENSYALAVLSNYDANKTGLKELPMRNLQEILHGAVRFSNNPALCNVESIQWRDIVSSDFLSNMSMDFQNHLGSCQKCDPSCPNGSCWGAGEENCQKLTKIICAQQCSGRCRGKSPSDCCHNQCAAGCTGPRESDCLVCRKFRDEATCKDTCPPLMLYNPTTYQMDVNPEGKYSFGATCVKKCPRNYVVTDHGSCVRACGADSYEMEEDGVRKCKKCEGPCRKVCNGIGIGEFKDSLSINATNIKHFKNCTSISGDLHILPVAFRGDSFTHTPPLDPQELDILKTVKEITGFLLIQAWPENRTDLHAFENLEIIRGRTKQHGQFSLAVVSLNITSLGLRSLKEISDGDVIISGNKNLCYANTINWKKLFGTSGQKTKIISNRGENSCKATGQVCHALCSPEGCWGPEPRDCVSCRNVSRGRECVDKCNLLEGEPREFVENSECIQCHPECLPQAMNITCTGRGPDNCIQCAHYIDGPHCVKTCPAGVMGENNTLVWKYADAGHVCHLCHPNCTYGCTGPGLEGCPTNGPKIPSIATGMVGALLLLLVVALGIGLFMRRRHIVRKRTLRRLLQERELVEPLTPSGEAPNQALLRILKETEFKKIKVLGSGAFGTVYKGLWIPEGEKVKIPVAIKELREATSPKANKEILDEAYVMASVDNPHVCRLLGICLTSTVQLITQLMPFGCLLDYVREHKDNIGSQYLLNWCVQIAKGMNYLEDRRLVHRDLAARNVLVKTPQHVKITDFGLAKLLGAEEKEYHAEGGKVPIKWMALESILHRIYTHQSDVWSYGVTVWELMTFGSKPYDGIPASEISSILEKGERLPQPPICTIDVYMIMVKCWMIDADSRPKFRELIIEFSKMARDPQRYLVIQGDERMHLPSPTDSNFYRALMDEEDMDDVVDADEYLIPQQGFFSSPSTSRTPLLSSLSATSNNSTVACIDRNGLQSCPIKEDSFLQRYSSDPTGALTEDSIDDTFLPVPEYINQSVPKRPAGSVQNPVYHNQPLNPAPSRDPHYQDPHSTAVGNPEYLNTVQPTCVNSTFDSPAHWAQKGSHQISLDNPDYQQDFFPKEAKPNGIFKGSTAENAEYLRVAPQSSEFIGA
T4 sequence (P49841 whole entry): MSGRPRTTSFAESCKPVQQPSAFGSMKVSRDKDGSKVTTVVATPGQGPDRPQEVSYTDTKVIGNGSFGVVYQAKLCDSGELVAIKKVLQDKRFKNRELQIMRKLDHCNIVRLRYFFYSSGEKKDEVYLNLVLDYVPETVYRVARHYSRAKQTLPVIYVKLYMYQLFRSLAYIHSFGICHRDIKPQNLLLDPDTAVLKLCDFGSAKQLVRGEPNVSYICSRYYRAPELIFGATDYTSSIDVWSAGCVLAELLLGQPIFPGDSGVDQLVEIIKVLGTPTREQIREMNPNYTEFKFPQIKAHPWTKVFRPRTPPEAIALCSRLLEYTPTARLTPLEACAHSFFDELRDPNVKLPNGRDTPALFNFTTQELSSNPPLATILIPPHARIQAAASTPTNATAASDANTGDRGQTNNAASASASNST

Fc1ccc(-c2cnc3[nH]cc(-c4ccnc(NC5CC5)n4)c3c2)cc1 [MJ04]
IC50 (JAK1; 1mM ATP): > 10000 nM
Fold of selectivity vs. JAK3 (JAK1; JAK1): 95
IC50 (JAK1; Km ATP): 193 nM
IC50 (JAK2; 1mM ATP): > 10000 nM
Fold of selectivity vs. JAK3 (JAK2; JAK 2): 126
IC50 (JAK2; Km ATP): 256 nM
Fold of selectivity vs. JAK3 (EGFR; EGFR): 1609
IC50 (EGFR; Km ATP): 3270 nM
Fold of selectivity vs. JAK3 (GSK-3-β; GSK-3-β): 908
IC50 (GSK-3-β; Km ATP): 1840 nM
IC50 (PI-3-K α): > 10000 nM
IC50 (PI-3-K β): > 10000 nM
STAT3 phosphorylation ([1]; A549 cells stimulated with IL-6): significant decrease
phosphorylation of STAT3 (Tyr705) ([1]; A549 cells, dose-dependent): significant decrease
phosphorylation of JAK1 [1, 4]: significant reduction
phosphorylation of JAK3 [1, 4]: significant reduction
hair growth compared to controls and tofacitinib-treated mice (DHT-induced AGA mice; 0.04 mg/Kg topical): significantly higher and homogeneous hair growth
H&E skin histopathology finding (DHT-induced AGA mice; 0.04mg/kg): Minimal degree of epidermal atrophy
H&E skin histopathology finding (DHT-induced AGA mice; 0.08mg/kg): Normal epidermis with increased hair follicles
hair follicle phase (histopathology) (DHT-induced AGA mice): at least in the anagen IIIc-IV phase
entry into the anagen phase (DHT-induced AGA mice): rapid entry into the anagen phase within seven days of treatment
mice displaying intense skin darkening followed by hair growth (DHT-induced AGA mice; within 10 days of treatment): around 90%
H&E skin histopathology finding ([2]; 0.016 mg/kg): Mild epidermal thickening with increased hair follicles
hair follicle grade ([2]; 0.016 mg/kg): +++ (graded on a scale ranging from 0 to 4 (++++))
H&E skin histopathology finding ([2]; 0.04 mg/kg): Mild epidermal thinning with increased hair follicles in the dermis and hypodermis
hair follicle grade ([2]; 0.04 mg/kg): ++++ (graded on a scale ranging from 0 to 4 (++++))
H&E skin histopathology finding ([2]; 0.08 mg/kg): Minimal epidermal thickening with moderate hair follicle
hair follicle grade ([2]; 0.08 mg/kg): ++ (graded on a scale ranging from 0 to 4 (++++))
early onset of hair [2]: 12 days
Cmax [3]: 480 nM
Tmax [3]: 1 h

CCS(=O)(=O)N1CC(CC#N)(n2cc(-c3ncnc4[nH]ccc34)cn2)C1 [Baricitinib, baricitinib, reference compound]
H&E skin histopathology finding (DHT-induced AGA mice; 0.04mg/kg): Minimal degree of epidermal thickening with increased distinct hair follicles
hair follicle phase (histopathology) (DHT-induced AGA mice): at least in the anagen IIIc-IV phase
entry into the anagen phase (DHT-induced AGA mice): rapid entry into the anagen phase within seven days of treatment
H&E skin histopathology finding ([2]; 0.02 mg/kg): Moderate degree of epidermal thickening
hair follicle grade ([2]; 0.02 mg/kg): ++++ (graded on a scale ranging from 0 to 4 (++++))
H&E skin histopathology finding ([2]; 0.04 mg/kg): Moderate degree of epidermal thickening
hair follicle grade ([2]; 0.04 mg/kg): ++++ (graded on a scale ranging from 0 to 4 (++++))
H&E skin histopathology finding ([2]; 0.1 mg/kg): Increased and morphologically distinct hair follicles
hair follicle grade ([2]; 0.1 mg/kg): +++ (graded on a scale ranging from 0 to 4 (++++))
early onset of hair [2]: 12 days
